Assay results from patent US20080176810A1, “Use of 3, 4', 5-Trihydroxy-Stilbene-3-Beta-D-glucoside in Prepartion of Medicines For Treating and/or Preventing Ischemic Heart Disease” (SHENZHEN NEPTUNUS PHARMACEUTICAL CO., LTD., priority 2004, published 2008).

Assays:
[1] = test system: ischemic reperfusion injury of myocardium; assay: Ischemic reperfusion injury of myocardium in rats, iv; format: in vivo, SD rats; settings: for CK / LDH: serum
Procedure: Administration was performed by femoral intravenous injection.
(1) Method of operation and ligation of coronary artery: Male SD rats were anesthetized with pentobarbital sodium (45 mg/kg) and immobilized on their backs for records of II lead ECG with an electrocardiograph (ECG-6851C, manufactured by Shanghai Photoelectrical Medical Electronic Apparatus Co., Ltd.). Tracheas were intubated and connected to a breathing apparatus. Thoracotomy was performed at intercostal space on left chest for cutting down fourth/fifth rib and opening cardiac pericardium to expose the heart. A 0/3 suture line was passed underneath the left branch of anterior descending coronary artery. After 10 minutes of stabilization (those with abnormal ECG after stabilization were abandoned). With two thrums passing through a small piece of fine silicone tube, a ligature was made on another small piece of fine silicone tube for ischemic ligation (those with no changes in ST segment and T-wave were excluded). After 10 minutes of ligation, drugs were injected slowly through femoral veins. 40 minutes later, the lines for ligation were cut off to reperfuse the anterior descending branch for 30 minutes.
(2) Detection of lactate dehydrogenase (LDH) and creatine kinase (CK): After completion of reperfusion, blood was sampled from abdominal aorta to determine serum activity of LDH and CK with ultraviolet spectrometry.
(3) Measurement of the area of myocardial infarction: With same thickness, 5 slices of ventricular myocardium were cut off from the part under the line of coronary ligation and in parallel to atrioventricular furrow and put into staining solution of nitroblue tetrazolium (N-BT) for 15 min of shaking dyeing. Normal myocardium would be dyed to lasureous color, while the infarct part of myocardium would not be dyed and remain pale-yellow. Under a microscopy, the infarct part was separated and weighed, and the percentage (%) of the weight of infarct part to the weight of total myocardium was adopted as the index for area of myocardial infarction.
(4) Data and statistic treatment: Data in all groups were presented with x±s and analysis of variance was adopted to check their significance.

[2] = test system: myocardial infarction induced by ligation of coronary artery; assay: Canine model of myocardial infarction induced by ligation of coronary artery, iv; format: in vivo, dogs; settings: for sum of ST (ΣST) segment elevation, x ± s: 0 min before, c3-c8 5,15,30,60,90,120 min after administration; for IZ/LV / IZ/WT: N-BT staining; for CK after administration / CK before administration / LDH after administration / LDH before administration: serum
Procedure: Drugs were medicated with intravenous injection. The volume of the drug administered was the same as that of normal saline for the animal model group of ischemic reperfusion with administrative volume of 2 ml/kg.
After weighing, the animals were anesthetised with pentobarbital sodium iv at the dose of 30 mg/kg. Tracheal intubation was performed and SC-M5 anesthesia respirator (manufactured by Shanghai Medical Instrument Factory) was connected for mechanical ventilation (16˜18 per min with tidal volume of 350˜550 ml) after thoracotomy at the fourth intercostal space of left sternal border. With exposure of the heart, the pericardium was cut open to make pericardium hammock. The coronary artery was dissociated from between the first and second branches of left anterior descending coronary artery, underneath which passed through silk threads for two-step ligation. On surface of heart were placed 30-point epicardial leads, to which four limbs were connected through needle-electrodes, which in turn were connected to Powerlab/8s (AD Instruments) with a multichannel switcher. Harris Two-step Ligation was performed. Two minutes before first ligation, 5 mg/kg lidocaine was given by femoral intravenous injection to prevent arrhythmia. While performing ligation, a steel wire of 1 mm in diameter was inserted into the first knot so as to be ligated together with the coronary artery. Afterward, the steel-wire was pulled out and then 30 min later, the second knot was made to complete the ligation.
The epicardial electrogram 10 min after completing the ligation was recorded as the control value before drug administration. Later, test drug was given by femoral intravenous injection while the negative control group was given solvent of same volume. Constant dripping was completed within 30 min for all groups with a constant flow pump (SH-88AB Controllable Intravenous Injector made by Quanzhou Lizhong Electronic Medical Instrument Factory). After completion of the constant dripping, changes of epcardial electrogram at 5, 15, 30, 60, 90 and 120 min after administration were recorded respectively. The number of ST segment elevation or depression to more than 2 mV and sum of total value ST segment elevation (ΣST) were applied as the indexes for observation of changes of epcardial electrogram and to calculate the percentage of the weight of infarct area to the weight of whole heart or to the weight of left ventricle. 3 ml of blood from right ventricle was sampled before ligation and 2 hrs after administration. After centrifuged at 3000 rpm for 15 min, serum was taken to detect lactate dehydrogenase (LDH) and serum creatine kinase (CK). Method according to instruction of the LDH and CK Assay kit (batch no: 20020523, Nanjing Jiancheng Bioengineering Institute) (ENR: U90625, Randox Company, UK) was adopted for detection. The performance was with a ultraviolet/visible range spectrophotometer of UV751GD type (Shanghai analytical apparatus Factory).

**Q.** For “3,4′,5-trihydroxy-stilbene-3-β-D-glucoside [TSG]”, which Infarct area percentage ([1]; high dose 30.0 mg/kg iv) is on record?
**A.** The Infarct area percentage was 23.71 ± 3.66 %.

**Q.** And the CK ([1]; high dose 30.0 mg/kg iv)?
**A.** Its CK is 559.4 ± 72.9 IU/L.

**Q.** And the LDH ([1]; high dose 30.0 mg/kg iv)?
**A.** The LDH was 744.0 ± 149.2 IU/L.

**Q.** What about the Infarct area percentage ([1]; low dose 7.5 mg/kg iv) of the same substance?
**A.** The Infarct area percentage was 27.57 ± 5.33 %.

**Q.** And the CK ([1]; low dose 7.5 mg/kg iv)?
**A.** Its CK is 710.7 ± 106.8 IU/L.

**Q.** And the LDH ([1]; low dose 7.5 mg/kg iv)?
**A.** The LDH was 857.7 ± 124.0 IU/L.

**Q.** What about the Infarct area percentage ([1]; middle dose 15.0 mg/kg iv) of the same substance?
**A.** The Infarct area percentage was 24.80 ± 3.32 %.

**Q.** And the CK ([1]; middle dose 15.0 mg/kg iv)?
**A.** The CK was 630.6 ± 108.6 IU/L.

**Q.** What about the LDH ([1]; middle dose 15.0 mg/kg iv) of the same substance?
**A.** The LDH was 809.4 ± 128.4 IU/L.

**Q.** And the “CK B/A” value ([2]; TSG 2.5 mg/kg)?
**A.** Its value is 2.54 ± 0.27.

**Q.** What about the “LDH B/A” value ([2]; TSG 2.5 mg/kg) of the same substance?
**A.** The value was 2.28 ± 0.21.

**Q.** What about the “sum of ST (ΣST) segment elevation, x ± s” value ([2]; TSG 2.5 mg/kg iv, 0 min before administration) of the same substance?
**A.** Its value is 154.5 ± 60.4 mV.

**Q.** And the “sum of ST (ΣST) segment elevation, x ± s” value ([2]; TSG 2.5 mg/kg iv, 5 min after administration)?
**A.** The value was 154.7 ± 55.0 mV.

**Q.** And the “sum of ST (ΣST) segment elevation, x ± s” value ([2]; TSG 2.5 mg/kg iv, 30 min after administration)?
**A.** Its value is 129.2 ± 57.7 mV.

**Q.** What about the “sum of ST (ΣST) segment elevation, x ± s” value ([2]; TSG 2.5 mg/kg iv, 60 min after administration) of the same substance?
**A.** Its value is 122.7 ± 59.6 mV.

**Q.** And the “sum of ST (ΣST) segment elevation, x ± s” value ([2]; TSG 2.5 mg/kg iv, 90 min after administration)?
**A.** The value was 128.3 ± 55.1 mV.

**Q.** What about the IZ/LV ([2]; TSG 2.5 mg/kg) of the same substance?
**A.** Its IZ/LV is 21.68 ± 1.88 %.

**Q.** And the IZ/WT ([2]; TSG 2.5 mg/kg)?
**A.** The IZ/WT was 11.70 ± 0.93 %.

**Q.** What about the CK after administration ([2]; TSG 2.5 mg/kg) of the same substance?
**A.** The CK after administration was 446.6 ± 39.4 IU/L.

**Q.** And the CK before administration ([2]; TSG 2.5 mg/kg)?
**A.** The CK before administration was 176.7 ± 18.8 IU/L.

**Q.** And the LDH after administration ([2]; TSG 2.5 mg/kg)?
**A.** Its LDH after administration is 823.3 ± 186.3 IU/L.

**Q.** What about the LDH before administration ([2]; TSG 2.5 mg/kg) of the same substance?
**A.** The LDH before administration was 359.7 ± 70.5 IU/L.

**Q.** What about the “CK B/A” value ([2]; TSG 5.0 mg/kg) of the same substance?
**A.** The value was 1.98 ± 0.38.

**Q.** And the “LDH B/A” value ([2]; TSG 5.0 mg/kg)?
**A.** Its value is 2.09 ± 0.16.

**Q.** What about the “sum of ST (ΣST) segment elevation, x ± s” value ([2]; TSG 5.0 mg/kg iv, 0 min before administration) of the same substance?
**A.** The value was 153.8 ± 50.7 mV.

**Q.** And the “sum of ST (ΣST) segment elevation, x ± s” value ([2]; TSG 5.0 mg/kg iv, 5 min after administration)?
**A.** The value was 148.0 ± 39.9 mV.

**Q.** And the “sum of ST (ΣST) segment elevation, x ± s” value ([2]; TSG 5.0 mg/kg iv, 30 min after administration)?
**A.** Its value is 116.2 ± 53.7 mV.

**Q.** And the “sum of ST (ΣST) segment elevation, x ± s” value ([2]; TSG 5.0 mg/kg iv, 60 min after administration)?
**A.** Its value is 105.3 ± 53.6 mV.

**Q.** What about the “sum of ST (ΣST) segment elevation, x ± s” value ([2]; TSG 5.0 mg/kg iv, 90 min after administration) of the same substance?
**A.** Its value is 103.8 ± 54.1 mV.

**Q.** And the IZ/LV ([2]; TSG 5.0 mg/kg)?
**A.** Its IZ/LV is 15.25 ± 1.41 %.

**Q.** And the IZ/WT ([2]; TSG 5.0 mg/kg)?
**A.** Its IZ/WT is 9.03 ± 1.16 %.

**Q.** And the CK after administration ([2]; TSG 5.0 mg/kg)?
**A.** The CK after administration was 356.2 ± 64.8 IU/L.

**Q.** And the CK before administration ([2]; TSG 5.0 mg/kg)?
**A.** Its CK before administration is 180.8 ± 13.2 IU/L.

**Q.** What about the LDH after administration ([2]; TSG 5.0 mg/kg) of the same substance?
**A.** Its LDH after administration is 587.1 ± 170.6 IU/L.

**Q.** What about the LDH before administration ([2]; TSG 5.0 mg/kg) of the same substance?
**A.** Its LDH before administration is 281.2 ± 80.9 IU/L.

**Q.** And the “CK B/A” value ([2]; TSG 10 mg/kg)?
**A.** The value was 1.74 ± 0.37.

**Q.** What about the “LDH B/A” value ([2]; TSG 10 mg/kg) of the same substance?
**A.** The value was 1.99 ± 0.14.

**Q.** And the “sum of ST (ΣST) segment elevation, x ± s” value ([2]; TSG 10 mg/kg iv, 0 min before administration)?
**A.** Its value is 155.0 ± 46.4 mV.

**Q.** What about the “sum of ST (ΣST) segment elevation, x ± s” value ([2]; TSG 10 mg/kg iv, 5 min after administration) of the same substance?
**A.** The value was 151.7 ± 35.6 mV.

**Q.** And the “sum of ST (ΣST) segment elevation, x ± s” value ([2]; TSG 10 mg/kg iv, 30 min after administration)?
**A.** The value was 115.2 ± 50.9 mV.

**Q.** And the “sum of ST (ΣST) segment elevation, x ± s” value ([2]; TSG 10 mg/kg iv, 60 min after administration)?
**A.** Its value is 104.7 ± 45.5 mV.

**Q.** What about the “sum of ST (ΣST) segment elevation, x ± s” value ([2]; TSG 10 mg/kg iv, 90 min after administration) of the same substance?
**A.** The value was 102.0 ± 51.8 mV.

**Q.** What about the IZ/LV ([2]; TSG 10 mg/kg) of the same substance?
**A.** The IZ/LV was 13.92 ± 1.32 %.

**Q.** And the IZ/WT ([2]; TSG 10 mg/kg)?
**A.** Its IZ/WT is 8.65 ± 1.11 %.

**Q.** And the CK after administration ([2]; TSG 10 mg/kg)?
**A.** The CK after administration was 299.5 ± 63.9 IU/L.

**Q.** What about the CK before administration ([2]; TSG 10 mg/kg) of the same substance?
**A.** The CK before administration was 172.7 ± 11.1 IU/L.

**Q.** What about the LDH after administration ([2]; TSG 10 mg/kg) of the same substance?
**A.** Its LDH after administration is 551.6 ± 131.3 IU/L.

**Q.** And the LDH before administration ([2]; TSG 10 mg/kg)?
**A.** The LDH before administration was 279.3 ± 70.8 IU/L.
